Test results as given in patent US20250134790A1, “ANTIMICROBIAL COMPOSITIONS” (Firmenich SA, priority 2021, published 2025).
Where two headings read alike, the source gives them in different places.

Tested on: Escherichia coli ATCC 10536
Assay: Robotic bacteria contact time (BCT) test of perfume ingredients in surfactant bases (EN-1276 based)
Type: cell-based
Conditions: contact time 45 seconds; for log reduction at 1 % / log reduction at 0.5 %: Escherichia coli, ATCC10536, 45 s; for log reduction at 1 % / Log reduction: surfactant base B, perfume ingredient 1% wt; for log reduction at 0.5 %: surfactant base A, perfume ingredient 0.5 % wt
Protocol: a. Preparation of Test Samples
Test samples were prepared by mixing perfume ingredients with the surfactant bases and vigorously stirred for 24 hrs. Samples with transparent appearance were selected for antimicrobial testing.
b. Measurement of Antimicrobial Efficacy of Fragrance Materials in Surfactant Systems
Preparation of screening plate and dilution plate: Aliquots (270 μl) of compositions were dispensed into the wells of a 96-well microtiter plate (MTP) along two columns (B1-H1, and B7-H7), and 270 μl of MilliQ water was added to well A1 and A7 as the control samples. This MTP was labelled as the “Screening plate”. In another MTP, labelled as the “Dilution plate”, 270 μL of Dey-Engley (D/E) neutralizing solution was added to column 1 and column 7. 270 μl of tryptone diluent solution was added to columns 2-6 and columns 8-12 of the Dilution MTP by a Hamilton robotic liquid handling station.
BCT test & neutralization & dilution: Bacterial stock (30 μl) was then added to columns 1 of the ‘Screening plate’ and mixed by a Hamilton robotic liquid handling station. After a contact time of 45 seconds, 30 μl of the mixtures in column 1 were transferred into the corresponding wells of column 1 of the ‘Dilution plate’. After neutralizing for 5 minutes in the D/E neutralizing solution, 30 μl of the neutralized mixtures were transferred from column 1 to column 2 of the Dilution MTP and mixed, followed by transferring 30μl of the mixtures from column 2 into column 3. This process was repeated serially diluting the bacteria suspensions across the plate to column 6. Bacterial stock (30 μl) was then added to columns 7 of the ‘Screening plate’ and mixed by a Hamilton robotic liquid handling station. After a contact time of 45 seconds, 30 μl of the mixtures in column 7 were transferred into the corresponding wells of column 7 of the ‘Dilution plate’. After neutralizing for 5 minutes in the D/E neutralizing solution, 30 μl of the mixtures were transferred from column 7 to column 8 of the Dilution MTP and mixed, followed by transferring further 30μl mixtures from column 8 into column 9. This process was repeated serially diluting the bacteria suspensions across the plate to column 12.
Plating: 30 μl volumes from each well in the Dilution MTP were transferred onto four Tryptone Soya Agar (TSA) plates. The TSA plates were allowed to stand for about two hours so that the 30 μl inocula spots could dry and the plates were then inverted and incubated overnight at 37° C. for 24 hours. After incubation, colonies were counted.
Calculating log reduction: Select the dilutions with colony counts, and calculate the viable cell counts (CFU/mL) of mixture in ‘Screening plate’, and log reduction against the control MilliQ sample was calculated.

[1] = no SCS (/), read-out: Log reduction
[2] = sodium cumene sulfonate (SCS) 3.00 % wt, read-out: Log reduction
[3] = sodium salicylate 3.00, read-out: Log reduction
[4] = sodium cumene sulfonate (SCS) 3.00 % wt

Row | Compound | log reduction at 1 % [1] | log reduction at 1 % [2] | log reduction at 1 % [3] | Log reduction (sodium salicylate 3.00) | Log reduction (no SCS (/)) | Log reduction [4] | further results
1 | CC(=O)OCCC1CCCCC1 [2-cyclohexylethyl acetate] | 0 | > 5 | > 5 | – | – | – | –
2 | CC(=CC=O)CCC(C)=C(C)C [3,6,7-trimethyl-2,6-octadienal] | 3.3 | > 5 | – | Insoluble | – | – | –
3 | C=CC(C)(O)CCCC(C)C (centres unmarked) [3,7-dimethyl-1-octen-3-ol] | -0.1 | > 5 | > 5 | – | – | – | –
4 | CC(C)=CCCC(C)CCO (centres unmarked) [3,7-dimethyl-6-octen-1-ol] | – | – | – | Insoluble | Insoluble | Insoluble | log reduction at 0.5 % (read-out: Log reduction): 2.8
5 | CC(C)=CCCC(C)CC#N (centres unmarked) [3,7-dimethyl-6-octenenitrile] | 0.1 | > 5 | > 5 | – | – | – | –
6 | CCCC=C1OC(=O)c2ccccc21 [3-butylidene-1-benzo[C] furanone] | – | – | – | Insoluble | – | – | log reduction at 1 % (no SCS (/)): 0.2; log reduction at 1 % [4]: > 5
7 | CCCCCCCC1CCC(=O)O1 (centres unmarked) [5-heptyldihydro-2(3H)-furanone] | – | – | – | – | – | – | log reduction at 0.5 %: 1.3; log reduction at 1 % (no SCS (/)): -0.2; log reduction at 1 % [4]: 4.9; log reduction at 1 % (sodium salicylate 3.00): > 5
8 | C/C=C\C(C)(O)CCC=C(C)C (centres unmarked) [(2Z)-4,8-dimethyl-2,7-nonadien-4-ol] | -0.1 | > 5 | > 5 | – | – | – | –
9 | CCCCCCCC=O [Octanal, octanal] | – | – | – | Insoluble | Insoluble | Insoluble | –
10 | cyclopropylmethyl (3Z)-3-hexenoate OR cyclopropylmethyl (3E)-3-hexenoate | – | – | – | >5 | 0.1 | >5 | –
